In PubChem BioAssay (NCI):
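Cells were grown in 96-well plates and exposed to each compound for 48 hours at five concentrations; endpoints were interpolated linearly between bracketing concentrations, or set to the highest concentration if not reached. Abbreviation: GI50, concentration required for 50% inhibition of growth. The concentration for full growth arrest is given as TGI.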

What was measured:
Assay in all cases: NCI anticancer screen, dose series, 48 h
[1] = system: HCC-2998 colon
[2] = system: SNB-19 CNS
[3] = system: OVCAR-5 ovarian
[4] = system: 786-0 renal
[5] = system: NCI-H226 lung
[6] = system: HOP-92 NSCLC
[7] = system: U251 CNS
[8] = system: HT29 colon
[9] = system: CCRF-CEM leukemia
[10] = system: BT-549 breast

| Compound | GI50 [1] | TGI [1] | GI50 [2] | TGI [2] | GI50 [3] | TGI [3] | GI50 [4] | TGI [4] | GI50 [5] | TGI [5] | GI50 [6] | TGI [6] | GI50 [7] | TGI [7] | GI50 [8] | TGI [8] | GI50 [9] | TGI [9] | TGI [10] | GI50 [10] |
| --- | --- | --- | --- | --- | --- | --- | --- | --- | --- | --- | --- | --- | --- | --- | --- | --- | --- | --- | --- | --- |
| C/C(=N\n1c(O)c(C#N)cc(C#N)c1=O)c1ccncc1 | > 100 µM | > 100 µM | > 100 µM | > 100 µM | > 100 µM | > 100 µM | > 100 µM | > 100 µM | > 100 µM | > 100 µM | > 100 µM | > 100 µM | > 100 µM | > 100 µM | > 100 µM | > 100 µM | > 100 µM | > 100 µM |  |  |
| COc1cc(-c2ccc(NC(=O)SCCC(=O)O)cc2OC)ccc1NC(=O)SCCC(=O)O |  |  |  | > 100 µM |  | > 100 µM |  | > 100 µM |  | > 100 µM |  |  |  | > 100 µM |  | > 100 µM |  | > 100 µM |  |  |
| c1ccc(-c2n(Cc3ccc4ccccc4c3)cc[n+]2Cc2ccc3ccccc3c2)cc1 |  |  |  |  | 1.36 µM | 2.75 µM | 1.46 µM | 3.02 µM |  |  |  |  |  |  |  |  | 1.56 µM | 4.06 µM |  |  |
| O=C(O)c1c(Cl)c(Cl)c(Cl)c(Cl)c1C(=O)Nc1ccc2cn[nH]c2c1 |  |  |  | > 100 µM |  | > 100 µM |  | > 100 µM |  | > 100 µM |  | > 100 µM |  | > 100 µM |  | > 100 µM |  |  | > 100 µM |  |
| O=C1C2c3[nH]c4ccccc4c3C3CCCCCC3C2C(=O)N1c1ccccc1 (stereo unspecified) |  | > 100 µM |  | > 74.1 µM |  | > 100 µM |  | > 100 µM |  | > 64.3 µM |  | 74.7 µM |  | > 45.6 µM |  | > 100 µM |  | 23.1 µM |  |  |
| O=S(=O)(c1ccccc1)N1CN2CN(C1)CN(S(=O)(=O)c1ccccc1)C2 |  | > 100 µM |  | > 100 µM |  | > 100 µM |  | > 100 µM |  | > 100 µM |  | > 100 µM |  | > 100 µM |  | > 100 µM |  |  | > 100 µM |  |
| CC(=O)[CH-]C(=O)c1ccccc1.CC(=O)[CH-]C(=O)c1ccccc1.CC(C)CCC[C@H](C)C1CCC2[C@@H]3CC=C4C[C@@H]([O-])CC[C@]4(C)C3CC[C@@]21C.CC(C)CCC[C@H](C)C1CCC2[C@@H]3CC=C4C[C@@H]([O-])CC[C@]4(C)C3CC[C@@]21C.Cl.[Ti+4] (stereo partly specified) | > 25 µM | > 25 µM | > 25 µM | > 25 µM | > 25 µM | > 25 µM | > 25 µM | > 25 µM | > 25 µM | > 25 µM |  |  | > 25 µM | > 25 µM | > 25 µM | > 25 µM | > 25 µM | > 25 µM |  |  |
| N#Cc1ccccc1C#C/C=C\C#CC#C/C=C\C#Cc1ccccc1C#N |  |  | 7.27 µM | > 100 µM | 11.4 µM | 26.5 µM | 16.6 µM | 42.1 µM | 29.7 µM | > 100 µM | 10.4 µM | > 100 µM | 12.4 µM | 47.1 µM | 3.39 µM | 94.4 µM | 4.95 µM | > 100 µM | > 100 µM | 20.9 µM |
| O=C(CO[N+](=O)[O-])OC/C=C/c1ccccc1 |  | > 100 µM |  | > 100 µM |  | > 100 µM |  | > 100 µM |  | > 100 µM |  | > 100 µM |  | > 100 µM |  | > 100 µM |  | > 100 µM |  |  |
| ClCc1ccc(Cn2cnc3c(Cl)ncnc32)cc1 |  |  | 16.9 µM | 43.3 µM | 18.2 µM | 34.7 µM |  | > 20 µM | 12.7 µM | 28.6 µM | 8.48 µM | 39.9 µM | 6.4 µM | 15.1 µM | > 45 µM | > 100 µM | 4.64 µM | > 48.8 µM | 45.8 µM | 21.9 µM |
| O=Cc1c(-c2ccccc2)[nH]c2ccccc2c1=O |  | > 100 µM |  | > 100 µM |  | > 100 µM |  | > 100 µM |  | > 100 µM |  | > 100 µM |  | > 100 µM |  | > 100 µM |  |  | > 100 µM |  |
| CC(=O)Nc1ccc(/C=C2\N=C(c3ccccc3)OC2=O)cc1 |  | > 100 µM |  | > 100 µM |  | > 100 µM |  | > 100 µM |  | > 100 µM |  | > 100 µM |  | > 100 µM |  |  |  | > 100 µM |  |  |
| COC1OC(CBr)C(OC(=O)c2ccccc2)C(OS(=O)(=O)c2ccc(C)cc2)C1Br (stereo unspecified) |  | > 100 µM |  | > 100 µM |  |  |  | > 100 µM |  |  |  | > 100 µM |  | > 100 µM |  | > 100 µM |  | > 100 µM |  |  |
| COc1cc(/C=C/c2ccc(Br)cc2)cc(OC)c1OC |  | 28.1 µM |  | > 100 µM |  | > 75.1 µM |  | 52.9 µM |  | 56.6 µM |  | 72.3 µM |  | 30.7 µM |  | > 39.3 µM |  | > 88 µM |  |  |
| Cc1ccc(-c2nc3cc(Cl)c(Cl)cc3nc2C#N)cc1 |  |  | > 100 µM | > 100 µM | 46.2 µM | > 100 µM | 47.5 µM | > 100 µM | > 100 µM | > 100 µM | 40.5 µM | > 100 µM | > 100 µM | > 100 µM | > 100 µM | > 100 µM | > 100 µM | > 100 µM | > 100 µM | > 100 µM |
| COc1ccc(-c2ccccc2)c2[nH]c3c(c12)CCNC3=O |  | > 100 µM |  | > 100 µM |  | > 100 µM |  | > 100 µM |  | > 100 µM |  | > 100 µM |  | > 100 µM |  | > 100 µM |  | > 100 µM |  |  |
| O=C(CCl)Nc1cc(Cl)c(Cl)cc1Cl |  | > 10 µM |  | 4.43 µM |  | 3.72 µM |  | 2.87 µM |  | 2.48 µM |  |  |  | 3.94 µM |  | 3.7 µM |  | 5.99 µM | 3.53 µM |  |
| COc1ccc(S(=O)(=O)N[C@H](C(=O)O)c2ccccc2)cc1 |  | > 100 µM |  | > 100 µM |  | > 100 µM |  | > 100 µM |  | > 100 µM |  |  |  | > 100 µM |  | > 100 µM |  | > 100 µM |  |  |
| Cc1ccc(/C=C/c2c(C(=O)/C=C/c3ccc(Cl)cc3)c(C)nc3ccccc23)cc1 | 1.49 µM | 2.96 µM | 1.75 µM | 3.28 µM | 2.16 µM | 5.86 µM | 1.6 µM | 3.2 µM | 1.92 µM | 3.92 µM | 1.62 µM | 3.53 µM | 1.7 µM | 3.38 µM | 2.05 µM | 14.9 µM |  |  | 2.93 µM | 1.4 µM |
| CCOc1ccc(OCC)c([P+](c2ccccc2)(c2ccccc2)c2ccccc2)c1 |  | 11 µM |  | 12.7 µM |  | 6.91 µM |  | 15.6 µM |  | 3.24 µM |  | 0.95 µM |  | 10.8 µM |  | 12.9 µM |  | 14.7 µM |  |  |
